Test results taken from PMC5711939, “The rumen microbiome: an underexplored resource for novel antimicrobial discovery” (NPJ Biofilms and Microbiomes, 2017).
Converted amounts (≈) assume the structure as drawn.

Key:
A. baumanii = assay: microbe, parasite or virus in culture; conditions: Acinetobacter baumannii, strain Q12-0867; Sensitive; cation adjusted MHB, 18–24 h
Experimental: (§1) Peptides dissolved in sterile distilled water and comparator antibiotics dissolved in the appropriate solvents[38] were added to sterile U-bottom polypropylene 96-well microplates at desired concentrations.

C. jejuni = assay: microbe, parasite or virus in culture; conditions: Campylobacter jejuni
Experimental: as §1

Ent. faecalis JH2-2 = assay: microbe, parasite or virus in culture; conditions: Enterococcus faecalis, JH22
Experimental: as §1

K. pneumoniae = assay: microbe, parasite or virus in culture; conditions: Klebsiella pneumoniae, cation adjusted MHB, 18–24 h
Experimental: as §1

[1] = tested on: List. monocytogenes NCTC 11994; assay: microbe, parasite or virus in culture; conditions: Listeria monocytogenes, NCTC11994
Experimental: as §1

P. aeruginosa (CF) = assay: microbe, parasite or virus in culture; conditions: Pseudomonas aeruginosa, cation adjusted MHB, 18–24 h
Experimental: as §1

S. aureus = assay: microbe, parasite or virus in culture; conditions: Staphylococcus aureus
Experimental: as §1

Sal. typhimurium SL1344 = assay: microbe, parasite or virus in culture; conditions: Salmonella enterica, TYPHIMURIUM
Experimental: as §1

E. coli K12 [2] = assay: MIC, broth microdilution; assay type: cell-based, Escherichia coli; conditions: Escherichia coli; strain K12; cation adjusted MHB, 18–24 h; read-out: MIC
Experimental: as §1

E. coli K12 [3] = assay: Time kill kinetics; assay type: cell-based, Escherichia coli; conditions: at 3 h
Experimental: Assessment of the bactericidal activity of peptides and comparator antibiotics was performed as previously described[39] using exponential-phase cultures of pathogens grown in MHB ([…]). Peptides were added at concentrations 3 times their MIC values. Experiments were performed in quadruplicates, and CFU/ml was calculated at different time points after over overnight incubation.

O=C(O)c1cn(C2CC2)c2cc(N3CCNCC3)c(F)cc2c1=O [Cip, Ciprofloxacin, reference compound]
MIC (A. baumanii): 0.25 µg/mL (≈ 0.754 µM) | MIC (C. jejuni; ATCC33292): 0.12 µg/mL (≈ 0.362 µM) | MIC (C. jejuni; NCTC11161): 0.5 µg/mL (≈ 1.51 µM) | MIC (Ent. faecalis JH2-2): 64 µg/mL (≈ 193 µM) | MIC (K. pneumoniae; ATCC700603, strain ATCC 700603, SHV-18): 0.25 µg/mL (≈ 0.754 µM) | MIC (K. pneumoniae; NCTC13442, strain NCTC 13442, OXA-48): 1 µg/mL (≈ 3.02 µM) | MIC (K. pneumoniae; strain ID not given, Sensitive): 0.03 µg/mL (≈ 0.0905 µM) | MIC (K. pneumoniae; strain Q14-0285, VIM): 32 µg/mL (≈ 96.6 µM) | MIC [1]: 64 µg/mL (≈ 193 µM) | MIC (P. aeruginosa (CF); ATCC27853, strain ATCC 27853, Sensitive): 0.25 µg/mL (≈ 0.754 µM) | MIC (P. aeruginosa (CF); strain PA01): 0.5 µg/mL (≈ 1.51 µM) | MIC (P. aeruginosa (CF); strain Q12-0535, Sensitive): 0.06 µg/mL (≈ 0.181 µM) | MIC (P. aeruginosa (CF); strain Q12-0581, IMI, MER): 2 µg/mL (≈ 6.04 µM) | MIC (P. aeruginosa (CF); strain Q12-0758, CAZ, IMI, MER): 2 µg/mL (≈ 6.04 µM) | MIC (P. aeruginosa (CF); strain Q14-0208, CAZ, IMI, MER): 4 µg/mL (≈ 12.1 µM) | MIC (P. aeruginosa (CF); strain Q14-0890, CAZ, IMI, MER): 4 µg/mL (≈ 12.1 µM) | MIC (S. aureus): > 256 µg/mL | MIC (S. aureus; ATCC29213, strain ATCC 29213, Sensitive, cation adjusted MHB, 18–24 h): 0.25 µg/mL (≈ 0.754 µM) | MIC (S. aureus; MRSA, strain EMRSA-15, resistances MRSA, Cip, cation adjusted MHB, 5 × 10^5 CFU/ml, 18–24 h): > 256 µg/mL | MIC (S. aureus; MRSA, strain Q14-0320, cation adjusted MHB, 18–24 h): 64 µg/mL (≈ 193 µM) | MIC (S. aureus; MRSA, strain Q14-0325, cation adjusted MHB, 18–24 h): 0.25 µg/mL (≈ 0.754 µM) | MIC (S. aureus; MRSA, strain Q14-0352, cation adjusted MHB, 18–24 h): 0.5 µg/mL (≈ 1.51 µM) | MIC (S. aureus; MRSA, strain Q14-0390, cation adjusted MHB, 18–24 h): 64 µg/mL (≈ 193 µM) | MIC (S. aureus; MRSA|NCTC12493, strain NCTC 12493, MRSA, cation adjusted MHB, 18–24 h): 0.25 µg/mL (≈ 0.754 µM) | MIC (Sal. typhimurium SL1344): 0.12 µg/mL (≈ 0.362 µM) | MIC (E. coli K12 [2]): 0.06 µg/mL (≈ 0.181 µM) | Bactericidal activity (reduction in viable count) (E. coli K12 [3]): > 4 log10 CFU/ml
